Results taken from ChEMBL document CHEMBL4699602, “Stapled and Xenopus Glucagon-Like Peptide 1 (GLP-1)-Based Dual GLP-1/Gastrin Receptor Agonists with Improved Metabolic Benefits in Rodent Models of Obesity and Diabetes” (J Med Chem, 2020).
Calls of active or inactive are those of the source. The calls are words filed in the database; no cut-off is given here. *1 amine or outer side, *2 acyl side, *3 side chain or, on linkers, in order; H or OH if unused. Bridges are numbered along the chain shown (N, C = ends). [ ]: non-standard residue; d: D form. X1 = CCCCCCCCCCCCCCCC(=O)NCCCCCCNC(=O)C(CCCCNC(=O)CCN1C(=O)CC([*:1])C1=O)NC(=O)CCN1C(=O)CC([*:2])C1=O; AEEA = NCCOCCOCC(=O)O; Aib = CC(C)(N)C(=O)O

Experiments:
Mus musculus [1] = test: Hypoglycemic activity in db/db mouse assessed as decrease in glucose excursion at 25 nmol/kg, ip dosed 30 mins before test and measured up to 120 mins by OGTT method; format: functional, organism-based; conditions: time 150.0 min
[2] = molecular target: Glucagon-like peptide 1 receptor (Homo sapiens, UniProt P43220); test: Agonist activity at human GLP-1R expressed in HEK293 cells assessed as stimulation of cAMP accumulation incubated for 20 mins; format: functional, cell-based
Chain of Glucagon-like peptide 1 receptor (P43220 whole entry): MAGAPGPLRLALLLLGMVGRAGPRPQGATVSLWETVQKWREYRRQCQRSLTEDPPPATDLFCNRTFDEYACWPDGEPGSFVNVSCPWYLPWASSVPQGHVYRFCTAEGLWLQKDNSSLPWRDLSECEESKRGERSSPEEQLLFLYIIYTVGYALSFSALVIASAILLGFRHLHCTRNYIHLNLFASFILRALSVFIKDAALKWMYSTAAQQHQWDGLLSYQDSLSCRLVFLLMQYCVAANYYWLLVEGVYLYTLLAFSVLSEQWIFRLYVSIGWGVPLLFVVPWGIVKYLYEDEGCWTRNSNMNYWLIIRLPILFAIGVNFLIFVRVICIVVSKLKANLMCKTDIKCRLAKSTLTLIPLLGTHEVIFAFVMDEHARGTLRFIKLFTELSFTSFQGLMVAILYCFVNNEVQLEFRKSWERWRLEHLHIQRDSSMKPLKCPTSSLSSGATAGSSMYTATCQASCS

[3] = molecular target: T1, Cholecystokinin receptor type A (Homo sapiens, UniProt P32238); test: Agonist activity at human CCK-1R expressed in HEK293 cells assessed as stimulation of ERK phosphorylation incubated for 5 mins; format: cell-based
T1 sequence (P32238 whole entry): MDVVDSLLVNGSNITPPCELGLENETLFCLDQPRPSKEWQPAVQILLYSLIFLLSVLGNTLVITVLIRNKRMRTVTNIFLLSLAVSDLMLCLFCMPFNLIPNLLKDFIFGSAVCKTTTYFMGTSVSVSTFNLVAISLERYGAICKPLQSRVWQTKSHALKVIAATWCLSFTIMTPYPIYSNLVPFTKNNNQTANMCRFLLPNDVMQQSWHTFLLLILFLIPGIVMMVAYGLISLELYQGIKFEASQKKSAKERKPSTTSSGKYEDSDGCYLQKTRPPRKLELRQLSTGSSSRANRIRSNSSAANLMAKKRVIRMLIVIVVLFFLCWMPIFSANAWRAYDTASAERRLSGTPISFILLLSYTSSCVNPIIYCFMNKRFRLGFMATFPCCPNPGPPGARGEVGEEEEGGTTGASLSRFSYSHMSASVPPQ

[4] = molecular target: T2, Gastrin/cholecystokinin type B receptor (Homo sapiens, UniProt P32239); test: Agonist activity at human CCK-2R expressed in HEK293 cells assessed as stimulation of ERK phosphorylation incubated for 5 mins; format: cell-based
T2 sequence (P32239 whole entry): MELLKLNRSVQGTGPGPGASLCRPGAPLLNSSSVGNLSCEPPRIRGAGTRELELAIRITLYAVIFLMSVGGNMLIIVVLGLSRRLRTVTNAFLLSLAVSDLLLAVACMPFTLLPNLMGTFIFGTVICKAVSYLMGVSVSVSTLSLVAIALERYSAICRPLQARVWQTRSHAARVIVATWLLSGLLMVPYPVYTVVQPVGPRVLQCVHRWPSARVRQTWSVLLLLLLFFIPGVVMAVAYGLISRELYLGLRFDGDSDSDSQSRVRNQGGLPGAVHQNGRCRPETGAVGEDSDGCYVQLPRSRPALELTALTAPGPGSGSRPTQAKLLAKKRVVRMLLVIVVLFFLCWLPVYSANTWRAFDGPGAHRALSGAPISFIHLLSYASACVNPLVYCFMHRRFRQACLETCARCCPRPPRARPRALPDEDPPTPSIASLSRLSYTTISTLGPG

Mus musculus [5] = test: Hypoglycemic activity in db/db mouse assessed as improvement in glucose tolerance at 25 nmol/kg, ip dosed 30 mins before test and measured up to 120 mins by OGTT method; format: functional, organism-based; conditions: time 150.0 min
Mus musculus [6] = test: Insulinotropic activity in db/db mouse assessed as improvement in plasma insulin level at 25 nmol/kg, ip dosed 30 mins before test and measured up to 60 mins by OGTT method; format: functional, organism-based; conditions: time 90.0 min
[7] = Half life in ICR mouse at 50 nmol/kg, sc up to 24 hrs by LC-MS/MS analysis; format: ADME, organism-based; conditions: in vivo
[8] = Tmax in ICR mouse at 50 nmol/kg, sc up to 24 hrs by LC-MS/MS analysis; format: ADME, organism-based; conditions: in vivo
[9] = AUC (0 to infinity) in ICR mouse at 50 nmol/kg, sc up to 24 hrs by LC-MS/MS analysis; format: ADME, organism-based; design: route subcutaneous, dose 50 nmol/kg, time <=24; conditions: in vivo
Mus musculus [10] = test: Hypoglycemic activity in non-fasted db/db mouse assessed as improvement in glucose tolerance at dosed intraperitoneally 30 mins before test and measured up to 120 mins by OGTT method; format: functional, organism-based; conditions: time 150.0 min
Mus musculus [11] = test: […] activity in non-fasted db/db mouse assessed as improvement in glucose tolerance at dosed intraperitoneally 30 mins before test and measured up to 120 mins by OGTT method; format: functional, organism-based; conditions: time 150.0 min
Mus musculus [12] = test: Inhibition of liquid-phase gastric emptying in 6 hrs fasted ICR mouse assessed as reduction in blood acetaminophen concentration at 25 nmol/kg, ip dosed 30 mins before acetaminophen dosing by LC-MS/MS analysis; format: functional, organism-based
Mus musculus [13] = test: Inhibition of solid-phase gastric emptying in fasted ICR mouse at 25 nmol/kg, ip measured after 4 hrs by LC-MS/MS analysis; format: functional, organism-based
[14] = Toxicity in Sprague-Dawley rat assessed as induction of kaolin intake at 25 nmol/kg, ip after 24 hrs by Kaolin consumption test; format: organism-based; conditions: in vivo
Rattus norvegicus [15] = test: Reduction of food intake in Sprague-Dawley rat at 25 nmol/kg, ip after 24 hrs; format: functional, organism-based
[16] = Toxicity in Sprague-Dawley rat assessed as induction of kaolin intake at 25 nmol/kg, sc BID for 10 days by Kaolin consumption test; format: organism-based; conditions: in vivo, 240 h, time 10 day
Rattus norvegicus [17] = test: Reduction of food intake in Sprague-Dawley rat at 25 nmol/kg, sc BID for 12 days; format: functional, organism-based; conditions: time 12.0 day
INS1 [18] = test: Toxicity in rat INS1 cells assessed as reduction cell viability up to 1000 nM after 24 hrs by MTT assay; format: cell-based; conditions: ins1, 24 h
INS1 [19] = test: Protection against glucotoxicity in rat INS1 cells assessed as recovery of cell viability after 24 hrs in presence of glucotoxicity media by MTT assay; format: functional, cell-based
[20] = Hepatotoxicity in ICR mouse assessed as effect on aspartate aminotransferase level at 1000 nmol/kg, sc BID for 14 days; format: toxicity, organism-based; conditions: in vivo, 336 h, time 14 day
[21] = Hepatotoxicity in ICR mouse assessed as effect on alanine aminotransferase level at 1000 nmol/kg, sc BID for 14 days; format: toxicity, organism-based; conditions: in vivo, 336 h, time 14 day
[22] = Renal toxicity in ICR mouse assessed as effect on serum creatinine level at 1000 nmol/kg, sc BID for 14 days; format: organism-based; conditions: in vivo, 336 h, time 14 day
[23] = Renal toxicity in ICR mouse assessed as effect on blood urea nitrogen level at 1000 nmol/kg, sc BID for 14 days; format: organism-based; conditions: in vivo, 336 h, time 14 day
Mus musculus [24] = test: Reduction in body weight in C57BL/6 mouse model of high-fat diet induced obesity at 25 nmol/kg, sc BID for 21 days relative to control; format: functional; design: scale not given: the % may be the effect or the level left; conditions: time 21 day
Mus musculus [25] = test: Reduction in body fat content in C57BL/6 mouse model of high-fat diet induced obesity at 25 nmol/kg, sc BID for 21 days relative to control; format: functional; design: scale not given: the % may be the effect or the level left; conditions: time 21 day
Mus musculus [26] = test: Reduction in fasting blood glucose in C57BL/6 mouse model of high-fat diet induced obesity at 25 nmol/kg, sc BID for 21 days relative to control; format: functional, organism-based; conditions: time 21.0 day
Mus musculus [27] = test: Improvement in glucose tolerance in C57BL/6 mouse model of high-fat diet induced obesity at 25 nmol/kg, sc BID for 21 days relative to control; format: functional, organism-based; conditions: time 21.0 day
Mus musculus [28] = test: Reduction in serum cholesterol in C57BL/6 mouse model of high-fat diet induced obesity at 25 nmol/kg, sc BID for 21 days relative to control; format: functional, organism-based; conditions: time 21.0 day
Mus musculus [29] = test: Reduction in serum triglyceride in C57BL/6 mouse model of high-fat diet induced obesity at 25 nmol/kg, sc BID for 21 days relative to control; format: functional, organism-based; conditions: time 21.0 day
Mus musculus [30] = test: Reduction in cumulated food intake in db/db mouse at 25 nmol/kg, sc BID for 21 days relative to control; format: functional, organism-based; conditions: time 21.0 day
Mus musculus [31] = test: Reduction in body weight gain in db/db mouse at 25 nmol/kg, sc BID for 21 days relative to control; format: functional, organism-based; conditions: time 21.0 day
Mus musculus [32] = test: Improvement in fasted blood glucose level in db/db mouse at 25 nmol/kg, sc BID for 21 days relative to control; format: functional, organism-based; conditions: time 21.0 day
Mus musculus [33] = test: Improvement in HbA1c level in db/db mouse at 25 nmol/kg, sc BID for 21 days relative to control; format: functional, organism-based; conditions: time 21.0 day
Mus musculus [34] = test: Improvement in pancreatic beta cell area level in db/db mouse at 25 nmol/kg, sc BID for 21 days relative to control; format: functional, organism-based; conditions: time 21.0 day
Mus musculus [35] = test: Inhibition of pancreatic non-beta cell area (alpha-cell) level in db/db mouse at 25 nmol/kg, sc BID for 21 days relative to control; format: functional, organism-based; conditions: time 21.0 day
Mus musculus [36] = test: Improvement in pancreatic islet area and number level in db/db mouse at 25 nmol/kg, sc BID for 21 days relative to control; format: functional, organism-based; conditions: time 21.0 day
Mus musculus [37] = test: Improvement in insulin content in db/db mouse at 25 nmol/kg, sc BID for 21 days relative to control; format: functional, organism-based; conditions: time 21.0 day
Mus musculus [38] = test: Improvement in glucose tolerance in db/db mouse at 25 nmol/kg, sc BID for 6 weeks followed by another 6 week saline treatment relative to control; format: functional, organism-based
Mus musculus [39] = test: Improvement in fasted blood glucose level in db/db mouse at 25 nmol/kg, sc BID for 6 weeks followed by another 6 week saline treatment relative to control; format: functional, organism-based
Mus musculus [40] = test: Reduction in Hb1Ac level in db/db mouse at 25 nmol/kg, sc BID for 6 weeks followed by another 6 week saline treatment relative to control; format: functional, organism-based

Substance	Activity (Mus musculus [1])	EC50 [2] [nM]	EC50 [3] [nM]	EC50 [4] [nM]	Activity (Mus musculus [5])	Activity (Mus musculus [6])	half-life [7] [h]	Tmax [8] [h]	AUC(0-inf) [9] [ng·h/mL]	Activity (Mus musculus [10])	Activity (Mus musculus [11])	inhibition (Mus musculus [12])	inhibition (Mus musculus [13])	Activity [14]	Activity (Rattus norvegicus [15])	Activity [16]	Activity (Rattus norvegicus [17])	Activity (INS1 [18])	Activity (INS1 [19])	Activity [20]	also measured
H-H[Aib]EGTYTNDVTEYCEEEAAKCFIEWLIKGKPSSGAPPPS[AEEA][AEEA]YGWLDF-NH2 (linker 14-21 via X1)	Active	0.022	> 1000	7.3	Active	Active	4.4	4	15900	Dose-dependent effect	Dose-dependent effect	Active	Active	Non-Toxic	Active	Non-Toxic	Active	Non-Toxic	Dose-dependent effect	Non-Toxic	Activity [21]: Non-Toxic; Activity [22]: Non-Toxic; Activity [23]: Non-Toxic; Activity (Mus musculus [24]): 26.3%; Activity (Mus musculus [25]): 32.2%; Activity (Mus musculus [26]): Active; Activity (Mus musculus [27]): Active; Activity (Mus musculus [28]): Active; Activity (Mus musculus [29]): Active; Activity (Mus musculus [30]): Active; Activity (Mus musculus [31]): Active; Activity (Mus musculus [32]): Active; Activity (Mus musculus [33]): Active; Activity (Mus musculus [34]): Active; inhibition (Mus musculus [35]): Active; Activity (Mus musculus [36]): Active; Activity (Mus musculus [37]): Active; Activity (Mus musculus [38]): Active; Activity (Mus musculus [39]): Active; Activity (Mus musculus [40]): Active
H-H[Aib]EGTYTNDVTEYLEEEAAKCFIEWLICGKPSSGAPPPS[AEEA][AEEA]YGWLDF-NH2 (linker 21-28 via X1)	Active	0.041	> 1000	8.8	Active	Active	4.7	4	19600	Dose-dependent effect	Dose-dependent effect	Active	Active	Non-Toxic	Active	Non-Toxic	Active	Non-Toxic	Dose-dependent effect	Non-Toxic	Activity [21]: Non-Toxic; Activity [22]: Non-Toxic; Activity [23]: Non-Toxic; Activity (Mus musculus [24]): 24%; Activity (Mus musculus [25]): 30.4%; Activity (Mus musculus [26]): Active; Activity (Mus musculus [27]): Active; Activity (Mus musculus [28]): Active; Activity (Mus musculus [29]): Active; Activity (Mus musculus [30]): Active; Activity (Mus musculus [31]): Active; Activity (Mus musculus [32]): Active; Activity (Mus musculus [33]): Active; Activity (Mus musculus [34]): Active; inhibition (Mus musculus [35]): Active; Activity (Mus musculus [36]): Active; Activity (Mus musculus [37]): Active; Activity (Mus musculus [38]): Active; Activity (Mus musculus [39]): Active; Activity (Mus musculus [40]): Active
